Values joined by “and” are separate entries in the source; they are usually repeats but may differ in a detail not shown here. Equal entries are not always repeated.
What was measured:
Kv1.3 Mutant 1 = Kv1.3 Mutant 1 (Homo sapiens, UniProt P22001, D423E/G427Q/P424R/S429P/T425E); assay: TEVC electrophysiology, oocytes expressing Kv1.3 Mutant 1 (Kv1.2 turret loop residues); format: cell-based
From the text: To test whether the predicted different binding poses of tannic acid to Kv1.2 and Kv1.3 could explain the contrasting functional effects on these two channels, we made three mutant forms of Kv1.3, introducing Kv1.2 residues into the Kv1.3 turret loop (Mutant 1), pore helix (Mutant 2) and selectivity filter-S6 linker (Mutant 3) (Fig. 9A, B). Mutant 2 was nonfunctional (Fig. 9C); the single residue in this mutant was inaccessible to tannic acid as it was deep inside the pore and was not predicted therefore to interact with tannic acid (Fig. 8).
We generated human potassium channel cRNA transcripts with the mMessage mMachine kit (Thermo Fisher Scientific, Waltham, MA, USA) according to manufacturer’s instructions, after vector linearization, from cDNA sub-cloned into expression vectors (pTLNx, pXOOM and pMAX). We injected Xenopus laevis oocytes (Xenoocyte, Dexter, MI, USA) with the channel cRNAs (0.5–10 ng) and incubated the oocytes at 16 °C for 1–4 days prior to electrophysiological recording.
We performed TEVC at 20–23 °C with an OC-725C amplifier (Warner Instruments, Hamden, CT, USA) and pClamp10 software. Chemicals for recording and oocyte storage solutions were from Sigma-Aldrich (St. Louis, MO). Bath solution contained (in mM): 96 NaCl, 4 KCl, 1 MgCl2, 1 CaCl2, 10 HEPES (pH 7.6). Pipettes were 1–2 MΩ resistance when filled with 3 M KCl. We recorded currents in response to voltage pulses between −120 mV or −80 mV and +40 mV at 10 mV intervals from a holding potential of −80 mV, to yield current–voltage relationships and examine activation kinetics. We recorded and analyzed data using Clampfit (Molecular Devices, Sunnyvale, CA, USA) and Graphpad Prism software (GraphPad, San Diego, CA, USA), stating values as mean ± SEM. We calculated the voltage dependence of activation (V0.5) by measuring tail currents at a voltage pulse of −30 mV (Kv7) or −50 mV (Kv1), then fitted the tail current/voltage relationship with a single Boltzmann function:1 g=(A1−A2)/{1+exp[V1/2−V/Vs]}y+A2 where g is the normalized tail conductance, A1 is the initial value at −∞, A2 is the final value at +∞, V1/2 is the half-maximal voltage of activation and Vs the slope factor. We fitted activation and deactivation kinetics with single exponential functions.
For wild-type and mutant Kv1.3 channels we calculated conductance–voltage curves from current–voltage relationships recorded in response to voltage pulses between −80 mV to +40 mV in 10 mV intervals from a holding potential of −80 mV. The conductance was calculated by subtracting the driving force (EK):2 Ek=xlnK^+i/K^+o

[1] = molecular target: native Kv1.3 current in activated human T-cells (Homo sapiens, UniProt P22001); assay: Patch-clamp of native Kv1.3 current in activated human T-cells; format: cell-based; conditions: approximation, underestimate of potency (saturation incomplete); read-out: IC50 for human T-cell Kv1.3 current
Chain of native Kv1.3 current in activated human T-cells (P22001 whole entry): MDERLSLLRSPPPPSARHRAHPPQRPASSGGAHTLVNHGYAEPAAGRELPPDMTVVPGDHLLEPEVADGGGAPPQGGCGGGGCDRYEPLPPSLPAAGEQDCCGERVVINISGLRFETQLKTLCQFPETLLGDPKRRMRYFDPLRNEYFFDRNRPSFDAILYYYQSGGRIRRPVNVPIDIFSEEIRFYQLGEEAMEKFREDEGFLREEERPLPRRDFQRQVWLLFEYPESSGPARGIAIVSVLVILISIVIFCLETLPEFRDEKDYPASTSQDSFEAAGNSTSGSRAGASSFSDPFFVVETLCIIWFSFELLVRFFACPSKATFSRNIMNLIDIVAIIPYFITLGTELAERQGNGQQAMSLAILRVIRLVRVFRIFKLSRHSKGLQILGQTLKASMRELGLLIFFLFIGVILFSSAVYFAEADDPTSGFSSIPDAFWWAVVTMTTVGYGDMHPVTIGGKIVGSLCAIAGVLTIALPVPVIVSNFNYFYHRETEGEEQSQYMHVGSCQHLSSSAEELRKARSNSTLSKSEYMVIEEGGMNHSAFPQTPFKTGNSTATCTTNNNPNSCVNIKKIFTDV
Description: Human CD4+ T cells from frozen PBMCs ([sequence] Technologies) were isolated with EasySep negative isolation kit ([sequence] Technologies, cat. #17952) according to manufacturers’ protocols. After isolation cells were plated on anti-CD3 (BioLegend, clone OKT3, 2.5 μg/ml), anti-CD28 (BioLegend, clone CD28.2, 2.5 μg/ml)-coated 6-well plate dish at 1.5 × 10^6 cells/well in 3 ml RPMI medium (Gibco) supplemented with 10% FBS (Omega Scientific), 1% L-glutamine (Gibco), 1% non-essential amino acids (Gibco), 1% sodium pyruvate (Gibco), 1% penicillin–streptomycin–amphotericin B (Gibco) and 50 µM, β-mercaptoethanol (Sigma), 30 U/ml recombinant human IL-2 (BioLegend, cat. #589102). Cells were incubated during 48–144 h in 5% CO2 + 95% O2 atmosphere at 37 °C, harvested and plated on poly-lysine coated coverslips; 30–60 min later cells were used in the experiment.
We performed patch clamp experiments at 20–23 °C, acquiring data with an EPC9 patch clamp amplifier (HEKA), a 5 kHz sampling rate and digitally filtering at 1–2 kHz. […] The Kv1.3 currents were recorded in response to 600 ms step pulse from holding potential −80 mV to +40 mV acquired every 30 s. […] The recorded currents were analyzed with Patch Master (HEKA Electronics) and Origin Pro (Origin Lab).

human CD4 T cells = assay: Human CD4 T cell proliferation assay (CFSE dilution, viability dye); format: cell-based; conditions: 96 h
From the text: Whole blood from de-identified healthy donors, from whom informed consent was obtained, was obtained from the Institute for Clinical and Translational Science (ICTS) research Blood Donor Program at the University of California, Irvine approved and reviewed by the Institutional Review Boards of UCI (IRB protocol HS #2001-2058). All ethical regulations relevant to human research participants were followed. Peripheral blood mononuclear cells (PBMC) were isolated by density gradient separation using lymphocyte separation media (Corning, Cat# 25-072-CV) and SepMate tubes (STEMCELL Technologies, Cat# 85450). Blood was first diluted (1:3) in phosphate-buffered saline (PBS) containing 2% fetal bovine serum (FPS), then overlaid on top of lymphocyte separation media (2:1). CD4+ T cells were isolated from PBMCs using magnetic separation (EasySep Human CD4+ T cell isolation kit, STEMCELL Technologies, Cat# 17952), post isolation purity is typically >95% based on CD4 and CD3 staining. Purified CD4^+ T cells were labeled with 1.6 µM of CellTrace CFSE in AIM V Serum-Free Medium (Gibco Cat# 12055-083) for 8 min[84]. CFSE labeled CD4 T cells were stimulated with anti-CD3- and anti-CD28-coated Dynabeads (Thermo Fisher Scientific, Cat# 111310) at 1:1 ratio in a round-bottom 96-well plate at 37 °C and 5% CO2 in the dark for 96 h in T cell culture medium (RPMI with 10% FCS, L-glutamine, non-essential amino acids, sodium pyruvate, β-mercaptoethanol and penn–strep with amphotericin B). On day 4 cells were stained with Fixable Viability Dye eFluor 780 (FVD-780, Thermo Fisher Scientific, Cat# 65-0865-14) in PBS for 20 min at 4 °C to identify dead cells. Cells were then washed with 1× PBS + 1% FBS twice and transferred to a round-bottom 96-deep well plate (Greiner, Cat# 07-000-119) for flow cytometry. Fluorescence intensity data were acquired using NovoCyte Quanteon (Agilent Technologies) flow cytometer. FSC files were used for gating and analysis using FlowJo analysis software (FlowJo LLC, Ashland, OR). […]

Kv7.5 = Kv7.5 (Homo sapiens, UniProt Q9NR82); set-up: method as in PMID 35997997; conditions: 100 µM; at −80 mV; cited from earlier work
Chain of Kv7.5 (Q9NR82 whole entry): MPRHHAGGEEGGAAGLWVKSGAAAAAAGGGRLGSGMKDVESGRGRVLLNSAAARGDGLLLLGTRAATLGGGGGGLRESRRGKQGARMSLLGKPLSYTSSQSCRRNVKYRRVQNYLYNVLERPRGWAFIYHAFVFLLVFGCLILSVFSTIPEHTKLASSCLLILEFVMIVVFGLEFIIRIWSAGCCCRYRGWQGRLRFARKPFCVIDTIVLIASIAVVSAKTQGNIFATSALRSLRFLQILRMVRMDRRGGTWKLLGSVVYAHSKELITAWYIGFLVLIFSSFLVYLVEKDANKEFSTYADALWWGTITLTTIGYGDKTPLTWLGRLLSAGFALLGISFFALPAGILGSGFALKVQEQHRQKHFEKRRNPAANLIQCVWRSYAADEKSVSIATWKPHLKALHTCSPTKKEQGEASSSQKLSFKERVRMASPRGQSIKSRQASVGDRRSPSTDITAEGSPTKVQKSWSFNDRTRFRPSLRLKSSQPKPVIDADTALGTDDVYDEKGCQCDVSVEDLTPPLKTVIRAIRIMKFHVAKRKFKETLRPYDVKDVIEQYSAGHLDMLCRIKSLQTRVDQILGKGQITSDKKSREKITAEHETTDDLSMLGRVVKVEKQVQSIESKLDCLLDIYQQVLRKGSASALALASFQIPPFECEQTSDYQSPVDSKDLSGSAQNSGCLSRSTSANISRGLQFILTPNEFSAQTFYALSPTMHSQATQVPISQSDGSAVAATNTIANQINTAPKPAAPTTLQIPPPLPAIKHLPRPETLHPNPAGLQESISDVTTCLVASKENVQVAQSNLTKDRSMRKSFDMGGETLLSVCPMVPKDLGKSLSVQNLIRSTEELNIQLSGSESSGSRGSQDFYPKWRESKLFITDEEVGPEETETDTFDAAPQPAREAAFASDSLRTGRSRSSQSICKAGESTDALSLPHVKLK

Kv1.1 = Kv1.1 (Homo sapiens, UniProt Q09470); set-up: method as in PMID 33093824; conditions: cited from earlier work
Chain of Kv1.1 (Q09470 whole entry): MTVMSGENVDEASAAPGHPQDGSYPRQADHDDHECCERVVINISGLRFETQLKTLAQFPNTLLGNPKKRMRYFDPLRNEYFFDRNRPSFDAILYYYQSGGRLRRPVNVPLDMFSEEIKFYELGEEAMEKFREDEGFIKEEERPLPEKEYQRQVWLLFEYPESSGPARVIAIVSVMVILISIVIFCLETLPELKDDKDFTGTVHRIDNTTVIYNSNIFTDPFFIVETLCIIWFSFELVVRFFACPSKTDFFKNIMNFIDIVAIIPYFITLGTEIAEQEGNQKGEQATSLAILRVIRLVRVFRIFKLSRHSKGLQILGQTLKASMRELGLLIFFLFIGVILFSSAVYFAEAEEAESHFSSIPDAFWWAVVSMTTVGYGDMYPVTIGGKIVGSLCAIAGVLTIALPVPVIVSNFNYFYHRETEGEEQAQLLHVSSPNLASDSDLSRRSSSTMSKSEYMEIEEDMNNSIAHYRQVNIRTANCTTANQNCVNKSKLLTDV

Chain of Kv1.3 Mutant 1 (P22001 whole entry D423E/P424R/T425E/G427Q/S429P): as the sequence (P22001 whole entry) above, with D423E, P424R, T425E, G427Q, S429P counted along it

tannic acid
Slope (Kv1.3 Mutant 1; 0.1 µM tannic acid, control 3.97 ± 0.40): 5.16 ± 0.56 mV | Current at 0 (mV) (Kv1.3 Mutant 1; 0.1 µM tannic acid, control 4.66 ± 1.27): 5.24 ± 0.91 | V0.5 Normalized tail current (Kv1.3 Mutant 1; 0.1 µM tannic acid, control -14.75 ± 3.06): -20.05 ± 2.13 mV | Current at 0 (mV) (Kv1.3 Mutant 1; 1 µM tannic acid): 5.37 ± 0.63 | Slope (Kv1.3 Mutant 1; 1 µM tannic acid): 4.97 ± 0.53 mV | V0.5 Normalized tail current (Kv1.3 Mutant 1; 1 µM tannic acid): -24.05 ± 2.18 mV | Current at 0 (mV) (Kv1.3 Mutant 1; 3 µM tannic acid): 4.93 ± 0.57 | Slope (Kv1.3 Mutant 1; 3 µM tannic acid): 5.05 ± 0.28 mV | V0.5 Normalized tail current (Kv1.3 Mutant 1; 3 µM tannic acid): -27.01 ± 1.83 mV | Current at 0 (mV) (Kv1.3 Mutant 1; 10 µM tannic acid): 4.01 ± 0.41 | Slope (Kv1.3 Mutant 1; 10 µM tannic acid): 5.33 ± 0.20 mV | V0.5 Normalized tail current (Kv1.3 Mutant 1; 10 µM tannic acid): -27.63 ± 1.98 mV | Current at 0 (mV) (Kv1.3 Mutant 1; 30 µM tannic acid): 2.18 ± 0.24 | Slope (Kv1.3 Mutant 1; 30 µM tannic acid): 5.94 ± 0.30 mV | V0.5 Normalized tail current (Kv1.3 Mutant 1; 30 µM tannic acid): -24.82 ± 2.70 mV | Current at 0 (mV) (Kv1.3 Mutant 1; 100 µM tannic acid): 1.15 ± 0.14 | Slope (Kv1.3 Mutant 1; 100 µM tannic acid): 6.41 ± 0.42 mV | V0.5 Normalized tail current (Kv1.3 Mutant 1; 100 µM tannic acid): -19.79 ± 4.83 mV | reduction of tannic acid sensitivity versus wild-type Kv1.3 (Kv1.3 Mutant 1; inhibition dose response): threefold | IC50 [1]: 3.3 ± 0.2 µM | LD50 (viability dose–response) (human CD4 T cells; mean of 9 donors): 87 µM | IC50 for limiting T cell proliferation (division index) (human CD4 T cells; CD3/CD28 Dynabead stimulation, 10% FCS): 35 µM and 35.03 µM | cell viability (human CD4 T cells; at 50 µM): 76.96 ± 8.922% | constitutive activation for Kv7.5 (Kv7.5): 50% | effect on voltage dependence of Kv1.1 (Kv1.1): negative-shift

— PMC11358443, “Polymodal K^+ channel modulation contributes to dual analgesic and anti-inflammatory actions of traditional botanical medicines” (Communications Biology, 2024)
